What was measured:
Assay type in all cases: cell-based, human
[1] = system: Circulating Tumour Cells (CTCs) from a patient with colon cancer; assay: Drug response score assay on CTCs from blood, Example 2
Protocol: (§1) CD45^+ cells and circulating tumour cells (CTCs) were isolated from a blood sample provided by each subject.
(§2) CD45 separation was performed by adding human CD45 microbeads (50 μl/ml blood), incubating for 15 minutes at 4° C. and then processing using an AutoMACS machine. This separates the blood sample into CD45^+ and CD45^−cells in 2 separate falcons. The falcon tubes are then centrifuged at 1200 rpm for 5 minutes.
(§3) The supernatant was removed from the CD45^−falcon tube, and the CD45^−cells contacted with 100 μl of FcR block and 100 μl of CD326 (EpCAM) MicroBeads, followed by incubation at […] 4° C. for 30 minutes. The CD45^−cells were then processed using an AutoMACS machine to separate the EpCAM positive and negative cells into 2 separate falcon tubes. The EpCAM-cells were discarded. The supernatant was removed from the EpCAM^+ cells, and the cells resuspended in DMEM with 2 μl Cell Tox, 2 μl MT and 2 μl MT. 20 μl of the resuspended pellet was then added to all sample wells excluding a blank. After all wells are added to, a cell count was conducted on the […] to determine the number of circulating tumour cells (CTCs).
(§4) The different cell types were each divided equally into populations, depending on the number of drugs/concentrations to be tested and plated on a cell-culture plate pre-coated with a scaffold of polycaprolactone (PCL) electrospun fibres and incubated at 37° C., 5% CO2, for 5 to (typically 10) minutes to facilitate cell attachment. After attachment, an initial imaging step was carried out using the RealTime-Glo™ MT assay from Promega (Catalogue No. G9711)) and the CellTox™ Green Cytotoxicity Assay (Promega, Catalogue No. G8741), carried out according to manufacturer's instructions. Following this initial imagining, the immunotherapeutic and/or chemotherapeutic agents were added to the cell populations as indicated below. After 10 minutes, the imagining step was repeated. The cell populations were then incubated at 37° C., 5% CO2 for 48 hours. The imaging step was then repeated. The cell populations were then re-dosed with the same immunotherapeutic and/or chemotherapeutic agents as indicated below, and incubated at 37° C., 5% CO2 for a further 48 hours. After this second 48 hour incubation, the imagining step was repeated for a final time.
(§5) At the end of this culture period, dose response scores were calculated using a normalized drug response metric as described in Gupta et al. (Communications Biology volume 3, Article number: 42 (2020), https://doi.org/10.1038/s42003-020-0765-z). The start readout for a given immunotherapeutic or chemotherapeutic agent at a given concentration was the to readout for said immunotherapeutic or chemotherapeutic agent at a specified concentration. The end readout for a given immunotherapeutic or chemotherapeutic agent at a given concentration was the final timepoint reading (t96h) for said immunotherapeutic or chemotherapeutic agent at a specified concentration.
(§6) The positive control start readout for a given drug/concentration was the to readout for the corresponding drug at a specified concentration. The positive control end readout for the corresponding drug at a specified concentration was the final timepoint reading (t96h) for the corresponding blank well.
(§7) The negative control start and end readouts for a given immunotherapeutic or chemotherapeutic agent at a given concentration were the to and final timepoint reading (t96h) respectively for blank cell or blank immuno cell well respectively.
(§8) The sensitivity or resistance of a subject's cancer to a given immunotherapeutic or chemotherapeutic agent was determined based on the calculated drug response score as shown in Table 2.
Blood samples from a patient with colon cancer were received on 3 Mar. 2022 and tested using a 1 drug panel.

[2] = system: Circulating Tumour Cells (CTCs) from a patient with lung cancer (adenocarcinoma); assay: Drug response score assay on CTCs (with CD45+ cells for immunotherapy) from blood, Example 5; conditions: lung cancer CTCs; for Drug sensitivity as calculated by the assay (interpretation of Drug Response Scores): Table 17
Protocol: as §1, §2
(§9) The supernatant was removed from the CD45^+falcon tube, and the cells resuspended in DMEM with 2 μl Cell Tox, 2 μl MT and 2 μl MT. 20 μl of the resuspended CD45^+ cells was then plated in each well which will contain an immunotherapy treatment.
as §3, §4, §5, §6, §7
(§10) The sensitivity or resistance of a subject's cancer to a given immunotherapeutic or chemotherapeutic agent was determined based on the calculated drug response score as shown in Table 2. […]

[3] = system: Circulating Tumour Cells (CTCs, EpCam+CD45−) from a patient with stage II synovial sarcoma; assay: Drug response score assay (RealTime-Glo MT / CellTox Green, PCL scaffold) on CTCs from blood, Example 1; parameters: key to Drug response score, conc. 1 / Drug response score, conc. 2 / Drug response score, conc. 3 / Drug response score, conc. 4: normalized drug response metric per Gupta et al. 2020
Protocol: as §1, §2, §3, §4, §5, §6, §7, §8
Blood samples from a patient with stage II synovial sarcoma (suspected spindle cell tumour) were received and tested using a 6 drug panel.
Chemotherapeutic agents were tested as in Table 3.

[4] = system: Circulating Tumour Cells (CTCs) from a patient with head and neck cancer (squamous cell carcinoma); assay: Drug response score assay on CTCs from blood, Example 6; conditions: for Drug response score, conc. 1: conc. 1: Ifos 0.125 μg/ml, Gemcit 2 μg/ml, Doxo 10 ng/ml, Etop 1 μg/ml, Metho 0.5 μg/ml, Capecit 200 μg/ml, Vinor 20 μg/ml; for Drug response score, conc. 1 / Drug response score, conc. 2 / Drug response score, conc. 3 / Drug response score, conc. 4: CTCs, t96h; for Drug response score, conc. 2: conc. 2: Ifos 0.25 μg/ml, Gemcit 10 μg/ml, Doxo 30 ng/ml, Etop 4 μg/ml, Metho 1 μg/ml, Capecit 300 μg/ml, Vinor 40 μg/ml; for Drug response score, conc. 3: conc. 3: Ifos 5 μg/ml, Gemcit 20 μg/ml, Doxo 90 ng/ml, Etop 20 μg/ml, Metho 2 μg/ml, Capecit 400 μg/ml, Vinor 80 μg/ml; for Drug response score, conc. 4: conc. 4: Ifos 10 μg/ml, Gemcit 40 μg/ml, Doxo 270 ng/ml, Etop 100 μg/ml, Metho 4 μg/ml, Capecit 600 μg/ml, Vinor 200 μg/ml; for effectiveness on Circulating Tumour Cells under laboratory conditions / Drug sensitivity as calculated by the assay (interpretation of Drug Response Scores): head and neck cancer CTCs; for Drug sensitivity as calculated by the assay (interpretation of Drug Response Scores): Table 20
Protocol: as §1, §2, §3, §4, §5, §6, §7, §8
Blood samples from a patient with head and neck cancer (squamous cell carcinoma) were received on 11 Mar. 2022 and tested using a 7 drug panel.

[5] = system: Circulating Tumour Cells (CTCs) from a patient with renal cancer; assay: Drug response score assay on CTCs (with CD45+ cells for immunotherapy) from blood, Example 7; parameters: key to Drug response score, conc. 1 / Drug response score, conc. 2 / Drug response score, conc. 3 / Drug response score, conc. 4: normalized drug response metric per Gupta et al. 2020
Protocol: as §1, §2, §9, §3, §4, §5, §6, §7, §10

[6] = system: Circulating Tumour Cells (CTCs) from a patient with colon cancer (sigmoid colon cancer); assay: Drug response score assay on CTCs from blood, Example 8; parameters: key to Drug response score, conc. 1 / Drug response score, conc. 2 / Drug response score, conc. 3 / Drug response score, conc. 4: normalized drug response metric (Gupta et al. 2020)
Protocol: as §1, §2, §3
as §4, with “After” for “The different cell types were each divided equally into populations, depending on the number of drugs/concentrations to be tested and plated on a cell-culture plate pre-coated with a scaffold of polycaprolactone (PCL) electrospun fibres and incubated at 37° C., 5% CO2, for 5 to (typically 10) minutes to facilitate cell attachment. After”
as §5, §6, §7, §8
Blood samples from a patient with colon cancer (sigmoid colon cancer) were received on 8 Mar. 2022 and tested using a 9 drug panel.
Chemotherapeutic agents were tested as in Table 24.

Structure (SMILES): N.N.[Cl][Pt][Cl] [Cisplatin]
- Drug response score, conc. 1 ([1]; Cisplatin 2 μg/ml, CTCs, t96h): 2.719
- Drug response score, conc. 2 ([1]; Cisplatin 4 μg/ml, CTCs, t96h): 2.874
- Drug response score, conc. 3 ([1]; Cisplatin 10 μg/ml, CTCs, t96h): 3.012
- Drug response score, conc. 4 ([1]; Cisplatin 20 μg/ml, CTCs, t96h): 3.259
- effectiveness on Circulating Tumour Cells under laboratory conditions ([1]; colon cancer CTCs): not effective
- Drug sensitivity as calculated by the assay (interpretation of Drug Response Scores) ([1]; colon cancer CTCs, Table 8): Resistant

Structure (SMILES): Nc1ccn([C@@H]2O[C@H](CO)[C@@H](O)C2(F)F)c(=O)n1 [Gemcitabine]
- effectiveness on Circulating Tumour Cells (CTCs) under laboratory conditions [2]: marginally more effective than other agents
- Drug sensitivity as calculated by the assay (interpretation of Drug Response Scores) [2]: S++
- Drug response score, conc. 1 ([3]; conc. 1: Doxo 10 ng/ml, Ifos 0.125 μg/ml, Gemcit 2 μg/ml, Doce 0.02 μg/ml, Carbo 2 μg/ml, Dacarb 1.5 μg/ml, CTCs, t96h, re-dosed at 48 h): 0.9382
- Drug response score, conc. 2 ([3]; conc. 2: Doxo 30 ng/ml, Ifos 0.25 μg/ml, Gemcit 10 μg/ml, Doce 0.2 μg/ml, Carbo 5 μg/ml, Dacarb 3 μg/ml, CTCs, t96h): 0.4695
- Drug response score, conc. 3 ([3]; conc. 3: Doxo 90 ng/ml, Ifos 5 μg/ml, Gemcit 20 μg/ml, Doce 2 μg/ml, Carbo 10 μg/ml, Dacarb 6 μg/ml, CTCs, t96h): 0.5149
- Drug response score, conc. 4 ([3]; conc. 4: Doxo 270 ng/ml, Ifos 10 μg/ml, Gemcit 40 μg/ml, Doce 10 μg/ml, Carbo 20 μg/ml, Dacarb 12 μg/ml, CTCs, t96h): 0.4075
- Drug sensitivity as calculated by the assay (interpretation of Drug Response Scores) ([3]; synovial sarcoma CTCs, Table 5): Sensitive (S+)
- Drug response score, conc. 1 [4]: 0.9091
- Drug response score, conc. 2 [4]: 0.8443
- Drug response score, conc. 3 [4]: 0.6925
- Drug response score, conc. 4 [4]: 0.3157
- effectiveness on Circulating Tumour Cells under laboratory conditions [4]: Sensitive S+
- Drug sensitivity as calculated by the assay (interpretation of Drug Response Scores) [4]: Sensitive (S+)
- Drug response score, conc. 1 ([5]; conc. 1: Pembr 20 μg/ml (CTCs + CD45+ cells), Docetax 0.02 μg/ml, Gemcit 2 μg/ml, Topo 5 μg/ml, Etop 1 μg/ml, Eribul 5 μg/ml (CTCs), t96h): −0.1637
- Drug response score, conc. 2 ([5]; conc. 2: Pembr 40 μg/ml (CTCs + CD45+ cells), Docetax 0.2 μg/ml, Gemcit 10 μg/ml, Topo 10 μg/ml, Etop 4 μg/ml, Eribul 10 μg/ml (CTCs), t96h): 0.0725
- Drug response score, conc. 3 ([5]; conc. 3: Pembr 100 μg/ml (CTCs + CD45+ cells), Docetax 2 μg/ml, Gemcit 20 μg/ml, Topo 50 μg/ml, Etop 20 μg/ml, Eribul 20 μg/ml (CTCs), t96h): −0.3154
- Drug response score, conc. 4 ([5]; conc. 4: Pembr 160 μg/ml (CTCs + CD45+ cells), Docetax 10 μg/ml, Gemcit 40 μg/ml, Topo 100 μg/ml, Etop 100 μg/ml, Eribul 40 μg/ml (CTCs), t96h): −0.0871
- effectiveness on Circulating Tumour Cells under laboratory conditions ([5]; renal cancer CTCs): Sensitive S++
- Drug sensitivity as calculated by the assay (interpretation of Drug Response Scores) ([5]; renal cancer CTCs, Table 23): Sensitive (S++)

Structure (SMILES): CN(Cc1cnc2nc(N)nc(N)c2n1)c1ccc(C(=O)N[C@@H](CCC(=O)O)C(=O)O)cc1 [Methotrexate]
- Drug sensitivity as calculated by the assay (interpretation of Drug Response Scores) [2]: S++
- Drug response score, conc. 1 [4]: 0.9711
- Drug response score, conc. 2 [4]: 0.9988
- Drug response score, conc. 3 [4]: 1.0559
- Drug response score, conc. 4 [4]: 0.7375
- effectiveness on Circulating Tumour Cells under laboratory conditions [4]: not effective
- Drug sensitivity as calculated by the assay (interpretation of Drug Response Scores) [4]: Resistant

Structure (SMILES): CCC1=C[C@@H]2CN(C1)Cc1c([nH]c3ccccc13)[C@@](C(=O)OC)(c1cc3c(cc1OC)N(C)[C@H]1[C@@](O)(C(=O)OC)[C@H](OC(C)=O)[C@]4(CC)C=CCN5CC[C@]31[C@@H]54)C2 [Vinorelbine]
- Drug sensitivity as calculated by the assay (interpretation of Drug Response Scores) [2]: S++
- Drug response score, conc. 1 [4]: 0.6102
- Drug response score, conc. 2 [4]: 0.9691
- Drug response score, conc. 3 [4]: 0.4733
- Drug response score, conc. 4 [4]: 0.8073
- effectiveness on Circulating Tumour Cells under laboratory conditions [4]: Sensitive S+
- Drug sensitivity as calculated by the assay (interpretation of Drug Response Scores) [4]: Sensitive (S+)
- Drug response score, conc. 1 ([6]; conc. 1 of each drug as in Table 24, CTCs, t96h): 0.0721
- Drug response score, conc. 2 ([6]; conc. 2 of each drug as in Table 24, CTCs, t96h): −0.6648
- Drug response score, conc. 3 ([6]; conc. 3 of each drug as in Table 24, CTCs, t96h): 0.2340
- Drug response score, conc. 4 ([6]; conc. 4 of each drug as in Table 24, CTCs, t96h): −0.5738
- Drug sensitivity as calculated by the assay (interpretation of Drug Response Scores) ([6]; sigmoid colon cancer CTCs, Table 26): Sensitive (S+)

— patent US20250290915A1, “METHOD FOR PREDICTING RESPONSIVENESS TO THERAPY” (CANCERTAIN LIMITED, priority 2022, published 2025)
